“Also recorded” adds a separate entry of the source.
Key:
hepcidin 25 = experiment: Time course of serum hepcidin in wild-type mice (ELISA); type: in vivo, C57BI/6 mice; settings: 5 mg/kg gavage once daily, third treatment day
Method: (§1) To assess the effect of the compound of Formula I-42, a small molecule selective ALK2 kinase inhibitor, on hepcidin and serum iron, a time course experiment was conducted. For time course analysis, female C57BI/6 mice were gavaged once daily with either the compound of Formula I-42 (5 mg/kg), or vehicle. On the third treatment day, ten mice from each dosing group were euthanized 4, 6, 8, 12, 16, or 24 hours post-dosing. Blood was sampled and serum extracted. The mature form of hepcidin (hepcidin 25) was measured in serum with the use of a commercial ELISA (Intrinsic LifeSciences, CA) as per the manufacturer's instructions. Serum iron levels were determined with the use of a commercial assay that was based on the standard bathophenanthroline disulfonate method (BioAssay Systems, CA) as per the manufacturer's instructions. […] Data are shown as the average±SEM.

[1] = tested on: non-dextran-bound iron content in livers; experiment: Non-dextran-bound liver iron in iron dextran mouse model of iron overload, second assay (10% HCl 10% TCA extraction); type: in vivo, CD1 mice; settings: 5 mg/kg QD, iron overloaded mice; **P<0.01, ****P<0.0001
Method: (§2) After 20 days of iron loading, a subgroup of mice was sacrificed to confirm iron overload. The remaining iron loaded mice were dosed QD with either the compound of Formula I-42, a small molecule selective ALK2 kinase inhibitor (5 mg/kg) or vehicle. […] Mice were sacrificed 16 hours post the 1st dose (16 hr) and […] post the 3rd dose (63 hr) of the compound of Formula I-42 and livers dissected and weighed.
(§3) In the second assay, non-heme tissue iron was extracted via acid hydrolysis and iron levels determined using the bathophenanthroline disulfonate method. Briefly, 50 mg sections of mouse liver were flash frozen on liquid nitrogen at study termination. Samples were processed by addition of a 10% HCl 10% Trichloroacetic acid mixture and allowed to extract for 20 hours at 65° C. Following extraction, samples were cooled to room temperature and centrifuged briefly. Samples were transferred to a 96-well plate at the appropriate dilution and a chromogen reagent mixture containing of bathophenanthrolinedisulfonic acid, thioglycolic acid, and saturated sodium acetate was added. Samples and standards and blanks were then read via absorbance at 535 nm on a SpectraMax plate reader after a brief incubation. Sample concentrations were determined by linear regression analysis in GraphPad Prism. […] Data are shown as average±SEM. […]

liver iron content = experiment: Liver iron content in iron dextran mouse model of iron overload, first assay (30% HCl 10% TCA extraction); type: in vivo, CD1 mice; settings: 5 mg/kg QD, by 63 hours of dosing, iron overloaded mice; ****P<0.0001
Method: as §2
as §3, with “Two assays were performed to evaluate tissue iron. In” for “In”, “the first” for “the second”, “a 30%” for “a 10%”, “containing” for “containing of”, “standards” for “standards and blanks”, “reader immediately.” for “reader after a brief incubation.”

serum iron [2] = experiment: Time course of serum iron in wild-type mice (bathophenanthroline disulfonate method); type: in vivo, C57BI/6 mice; settings: 5 mg/kg gavage once daily
Method: as §1

lymphocytes = experiment: Lymphocyte counts in healthy volunteers (MAD); type: in vivo, human
Method: (§4) Participants in Part 2, Cohorts 1 through 3, received a daily oral dose of the compound of Formula I-11 (50, 100, or 200 mg liquid formulation respectively) or placebo for 7 days. A daily oral dose of the compound of Formula I-11 or placebo in participants in Part 2, Cohort 4 (350 mg liquid formulation) was planned for 14 days but was discontinued early in all subjects, either by the Investigator because of AEs, or by the Sponsor. A decision was made by the Sponsor to discontinue dosing of the entire cohort based on the frequency of AEs and laboratory abnormalities after Day 9. In Cohort 4, participants on the compound of Formula I-11 received daily oral dosing of 350 mg for up to 7 days; one placebo participant received daily oral dosing for 9 days. Samples were collected for determination of pharmacodynamic parameters at pre-dose daily and to 24 hours post dose (day 8) while on drug. Daily trough PK samples were collected for the determination of steady-state from Day 2 to Day 12 or 13. Participants returned to the site on Day 30 for an end-of-study visit. Safety was evaluated by a Safety Review Committee prior to escalation to the next dose level cohort.

transferrin saturation = experiment: Transferrin saturation (TSAT) in healthy volunteers; type: in vivo, human
Method: (§5) Participants in Part 1 received a single oral dose of the compound of Formula I-11 or placebo on Day 1 and serial PK samples were collected. Baseline assessments were performed on day −1 prior to dosing. Samples were collected for determination of pharmacodynamic parameters at pre-dose daily and up to 24 hours post dose (day 2) after a single oral dose of the compound of Formula I-11. Participants remained at the study site for observation for 24 hours post-dose through the PK sample collection on Day 2. Participants returned to the site for the 48, 72, and 120-hour post-dose sample collection on Days 3, 4, and 6. Safety was evaluated by a Safety Review Committee prior to escalation to the next dose level cohort.
as §4
(§6) Pharmacodynamic endpoints: Protocol-specified endpoints were assessed at baseline and regularly throughout the study period. These assessments included measurements of serum iron, transferrin saturation (calculated as serum iron/total iron-binding capacity), serum ferritin, serum hepcidin, and reticulocyte hemoglobin content. Measurements of all pharmacodynamic end points were made using standard clinical laboratory tests. Hepcidin analysis was performed using an ELISA kit from Intrinsic LifeSciences (Intrinsic Hepcidin IDx™ ELISA kit).

serum ferritin = experiment: Serum ferritin in healthy volunteers; type: in vivo, human
Method: as §5
Participants in Part 2, Cohorts 1 through 3, received a daily oral dose of the compound of Formula I-11 (50, 100, or 200 mg liquid formulation respectively) or placebo for 7 days. […] Safety was evaluated by a Safety Review Committee prior to escalation to the next dose level cohort.
(§7) Pharmacodynamic endpoints: Protocol-specified endpoints were assessed at baseline and regularly throughout the study period. These assessments included measurements of serum iron, transferrin saturation (calculated as serum iron/total iron-binding capacity), serum ferritin, serum hepcidin, and reticulocyte hemoglobin content. […]

serum iron [3] = experiment: Serum iron in healthy volunteers; type: in vivo, human
Method: as §5, §4, §6

[4] = Phase 1 SAD/MAD study in healthy volunteers: pharmacokinetics; type: in vivo, human
Source text: (§8) The primary objectives of this study were to a) evaluate safety and tolerability of escalating doses of the compound of Formula I-11 administered as single and multiple oral doses in healthy male volunteers and healthy postmenopausal female volunteers and b) evaluate the PK parameters following escalating doses of the compound of Formula I-11 administered as single and multiple oral doses. The secondary objective of this study was to evaluate the pharmacodynamic (PD) parameters following escalating doses of the compound of Formula I-11 administered as single and multiple oral doses. This study was conducted in two parts.
as §5, with “Participants remained at the study site for observation for 24 hours post-dose through the PK sample collection on Day 2. Participants returned to the site for the 48, 72, and 120-hour post-dose sample collection on Days 3, 4, and 6.” left out
Participants in Part 2, Cohorts 1 through 3, received a daily oral dose of the compound of Formula I-11 (50, 100, or 200 mg liquid formulation respectively) or placebo for 7 days. […] Safety was evaluated by a Safety Review Committee prior to escalation to the next dose level cohort. […]

[5] = tested on: reticulocyte hemoglobin content; experiment: Reticulocyte hemoglobin content in healthy volunteers (MAD); type: in vivo, human
Method: as §4, §6

[6] = Phase 1 SAD/MAD study in healthy volunteers: safety and tolerability; type: in vivo, human; settings: for dose level up to which well tolerated: healthy participants
Source text: A total of 131 healthy, males aged 18 to 60 years and post-menopausal females aged 45 to 60 years, participated in this study.
as §8
Part 1 included 80 participants (10 cohorts of 8 participants each). Male and female participants who met the eligibility criteria were randomly assigned, in a ratio of 3:1 to receive the compound of Formula I-11 or matching placebo, N=6 and 2 per dose cohort, respectively. Participant enrollment included […] males and 12.5% females (postmenopausal). The IMP formulation used in Cohorts 1 through 6 was an oral capsule (doses of 1, 3, 10, 30, 100, or 300 mg capsule formulation). An oral liquid formulation was evaluated in Cohorts 7 through 10 (doses of 30, 100, 300 or 450 mg liquid formulation).
as §5
Part 2, Cohorts 1 through 4, included 41 participants (4 cohorts of 10 participants each and 1 additional placebo participant in Cohort 1). Male and female participants who met the eligibility criteria were randomly assigned at a ratio of 4:1 to receive either the compound of Formula I-11 oral liquid formulation or matching placebo, N=8 and 2 per dose cohort respectively. Forty (97.6%) males and 1 (2.4%) female (placebo) participant were enrolled.
as §4
Part 2, MAD Cohort 5 (C5) participants received either the compound of Formula I-11, 100 mg (n=8) or placebo (n=2) on Days 1, 2, 3, 4, 5, 6, 7. The last dose was administered on the morning of Day 7. […]

serum hepcidin = experiment: Serum hepcidin in healthy volunteers (Intrinsic Hepcidin IDx ELISA); type: in vivo, human
Method: as §4, with “Daily trough PK samples were collected for the determination of steady-state from Day 2 to Day 12 or 13. Participants returned to the site on Day 30 for an end-of-study visit.” left out, “cohort. […]” for “cohort.”
as §7

[7] = Day 4, MAD first dose level (50 mg daily)
[8] = Day 4, MAD fourth dose level (350 mg daily)
[9] = Day 4, MAD second dose level (100 mg daily)
[10] = Day 4, MAD third dose level (200 mg daily)

## COc1cc2c(-c3cnn4cc(N5CC(N6CCN(C)CC6)C5)cnc34)ccnc2cc1F [Formula I-42]
Hepcidin 25
  onset of hepcidin reduction: as soon as four hours post-administration
Hepcidin 25; post-administration
  hepcidin reduction sustained through: 12 h
Hepcidin 25; wild-type mice
  effect on circulating hepcidin: reduced circulating hepcidin levels
[1]
  effect on non-dextran-bound iron content in livers: significantly reduced non-dextran-bound iron content
Liver iron content
  effect on liver iron content: reduce liver iron content; also recorded: significantly reduced liver iron content
Serum iron [2]; at 16 hours, average
  peak serum iron: 716.31 µg/dL
Serum iron [2]; third treatment day
  onset of serum iron increase: eight hours post-administration
Serum iron [2]; third treatment day, post-administration
  time of peak serum iron: 16 h
Serum iron [2]; third treatment day, wild-type mice
  effect on serum iron: increased serum iron

## COc1cc2c(-c3cnn4cc(N5CCC(N6CCN(C)CC6)CC5)cnc34)ccnc2cc1F [Formula I-11]
lymphocytes; after the treatment period ended
  reversibility of lymphopenia: reversible
lymphocytes; repeated oral administration, onward
  development of lymphopenia (lymphocyte counts<1.0×10^9 cells/L): ≥ 6 day
lymphocytes; repeated oral administration, post treatment, higher doses
  start of decreases in lymphocyte counts: 5 days
Transferrin saturation; [7]
  transferrin saturation mean percent change from baseline: 1.6%
Transferrin saturation; [8]
  transferrin saturation mean percent change from baseline: 30.1%
Transferrin saturation; [9]
  transferrin saturation mean percent change from baseline: 1.5%
Transferrin saturation; [10]
  transferrin saturation mean percent change from baseline: 7.5%
Transferrin saturation; once-daily doses of 50 mg
  observed PD response (transferrin saturation): not substantially different from placebo
Transferrin saturation; single dose of 30 mg, liquid formulation
  observed PD response (transferrin saturation): not substantially different from placebo
Transferrin saturation; single or repeated doses of 100 mg or above
  effect on transferrin saturation: sustained, dose-related increases in transferrin saturation
Serum ferritin; MAD cohort participants
  effect on serum ferritin: decreases were observed in serum ferritin
Serum ferritin; SAD versus MAD
  effect on serum ferritin, single versus multiple doses: observed only after multiple doses
Serum iron [3]; [7]
  serum iron mean change from baseline: 1.48 μM/L
Serum iron [3]; [8]
  serum iron mean change from baseline: 17.71 μM/L
Serum iron [3]; [9]
  serum iron mean change from baseline: 0.59 μM/L
Serum iron [3]; [10]
  serum iron mean change from baseline: 5.11 μM/L
Serum iron [3]; MAD, some participants exhibiting large PD effects on Day 4
  serum iron concentrations by Day 7: returned to baseline or below
Serum iron [3]; multiple dose regimen, day of treatment
  time of peak serum iron concentrations: Day 3 or 4
Serum iron [3]; single (SAD) or once-daily (MAD) oral administration
  effect on serum iron: rapid, robust, and sustained dose-related increases in serum iron
Serum iron [3]; single dose, Day 2, post-dose
  time of peak serum iron effect: 24 h
[4]; both sexes, human, in vivo, oral, approximately
  half-life: 600 to 900 min
[4]; multiple doses from 50-200 mg
  mean AUC and Cmax versus dose: increased linearly with greater than dose-proportional increases
[5]; MAD
  peak increase in reticulocyte hemoglobin content: 7 days
[5]; MAD cohorts 1-4, post-dosing
  start of increase in reticulocyte hemoglobin content: 4 days
[5]; repeated administration
  effect on reticulocyte hemoglobin content: increases over baseline in the hemoglobin content of reticulocytes
[6]; after 7 daily oral doses
  dose level up to which well tolerated: up to 200 mg
[6]; human, in vivo
  AEs reported in >2 treated subjects and higher than placebo: headache, nausea, vomiting, diarrhea, gastroenteritis, chills, pyrexia, myalgia, decreased appetite, lymphopenia, neutropenia, abdominal discomfort, abdominal pain (upper), dizziness, fatigue, rhinorrhea, tonsillitis, and liver enzyme increases
  AEs that led to study drug discontinuation in three or more participants: lymphopenia and chills
  participants who discontinued the study due to AEs: 10 of 40 (25%)
  serious adverse events: no serious adverse events
  severity of the majority of AEs: mild or moderate in severity
  subjects who discontinued the study due to AEs: none
  subjects with increases in ALT>2×ULN: 3
[6]; single oral dose
  dose level up to which well tolerated: up to 450 mg
Serum hepcidin; MAD Cohort 5, 100 mg
  earliest decrease in hepcidin after first dose: 4 h
Serum hepcidin; once-daily oral over 7 days, similar at 50 mg, 100 mg and 200 mg
  effect on serum hepcidin versus placebo: robust decreases in baseline hepcidin
